We go through 23 molecules from patent publication US11987608B2, “Composition for accelerating cell proliferation comprising erythropoietin-derived peptide” (SYLUS CO., LTD., priority 2018, dated 2024).

Where two headings read alike, the source gives them in different places. No end group written: not given here.

In test [1] the target is T1, Soluble mouse EPOR chimera proteins (Mus musculus, UniProt P14753).
T1 construct: Soluble mouse EPOR chimera proteins; purchased R&D Systems
T1 sequence (P14753 25-249 limits assumed): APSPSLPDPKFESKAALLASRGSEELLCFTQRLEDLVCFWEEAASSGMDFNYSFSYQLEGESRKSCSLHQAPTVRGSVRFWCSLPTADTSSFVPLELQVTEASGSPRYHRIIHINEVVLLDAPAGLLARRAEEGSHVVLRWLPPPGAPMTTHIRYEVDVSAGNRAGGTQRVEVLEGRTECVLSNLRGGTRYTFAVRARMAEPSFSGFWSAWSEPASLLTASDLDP
Briefly: SPR binding affinity of erythropoietin-derived peptides to erythropoietin receptor. As to conditions: for koff: read-out: Kd (dissociation rate); for kon: read-out: Ka (association rate). How it is done:
The SPR technique is to measure interactions between biomolecules in real-time by using an optical principle without specific labeling, and is a system analyzing affinity between two molecules and kinetics, i.e., an association rate (Ka) and a dissociation rate (Kd).
In detail, real-time SPR analysis was performed using Reichert SPR Biosensor SR 7500C instrument (Reichert Inc., NY, USA). Soluble mouse EPOR chimera proteins (R&D Systems, Minneapolis, MN, USA) were covalently linked to a carboxymethylated dextran matrix-coated chip (BR-1005-39, Pharmacia Biosensor AB) by an amine coupling procedure using an amine coupling kit (BR-1000-50, GE Healthcare, USA) in accordance with manufacturer's instructions. Each 5 μM, 2.5 μM, and 1.25 μM of the peptide samples of the present disclosure and scrambled peptides were applied at a flow rate of 5 μl/minute, and the experiments were independently performed in duplicate. For signal normalization, DMSO was applied at a flow rate of 5 μl/minute, and after each binding cycle, the sensor chip was regenerated by injecting 25 mM acetic acid at a flow rate of 20 μl/minute.

Test [2] deals with PC12 cells. The test can be described thus: Comparison of cell protective and proliferative effects to EPO by K-means clustering. It counts as cell-based. As to conditions: FIG. 9.
The target of the next test is T2, erythropoietin receptor (Homo sapiens, UniProt P19235).
T2 construct: expressed in transfected cells
T2 sequence (P19235 25-508): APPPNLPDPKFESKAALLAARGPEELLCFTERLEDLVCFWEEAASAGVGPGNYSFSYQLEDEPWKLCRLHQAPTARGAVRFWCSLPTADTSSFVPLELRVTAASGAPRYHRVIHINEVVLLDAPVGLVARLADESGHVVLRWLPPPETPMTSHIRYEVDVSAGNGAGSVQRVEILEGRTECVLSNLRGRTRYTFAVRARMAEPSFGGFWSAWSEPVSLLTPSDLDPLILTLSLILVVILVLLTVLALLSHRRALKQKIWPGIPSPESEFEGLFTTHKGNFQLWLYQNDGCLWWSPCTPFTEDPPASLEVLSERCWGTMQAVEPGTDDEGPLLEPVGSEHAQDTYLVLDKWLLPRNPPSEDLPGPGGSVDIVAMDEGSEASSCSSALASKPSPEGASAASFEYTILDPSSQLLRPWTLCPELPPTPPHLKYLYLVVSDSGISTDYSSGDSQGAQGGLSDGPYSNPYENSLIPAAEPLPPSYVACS
Briefly: Erythropoietin receptor activation through ERK1/2 phosphorylation (western blot) in HEK 293 cells expressing EPOR-GFP. As to conditions: FIG. 12; for character of erythropoietin receptor activation: ERK1/2 phosphorylation. It counts as cell-based.

Test [3] concerns PC12 cells. Briefly: Cell proliferation, MTT assay. It counts as cell-based. As to conditions: 10 ng/ml peptide, 24 hours, FIG. 7. How it is done: To determine the side effect, such as cell proliferation, of the peptides prepared in Examples 1 to 3, cell viability was evaluated by an MTT assay.
In detail, PC12 cells were cultured in a DMEM (Dulbecco's Modified Eagle's Medium) medium (Hyclone, USA) and an RPM11640 medium (Hyclone, UT, USA), each supplemented with 10% fetal bovine serum (FBS, Hyclone, Utah, USA), 100 unit/ml penicillin, and 100 μg/ml streptomycin (Hyclone, UT, USA) in an incubator supplied with 5% CO2 and under a condition of 37° C. PC12 cell lines were seeded in a 96-well plate at a density of 5×10^4 cells/ml, and cultured under conditions of 37° C. and 5% CO2 for 24 hours. Thereafter, the cells were treated with each of the peptides of Examples 1 to 3, which were prepared at a concentration of 10 ng/ml, followed by incubation for 24 hours. Thereafter, 20 μl of 5 mg/ml 3-[4,5-dimethyl-thiazol]-2,5-diphenyl-tetrazolium bromide (MTT) reagent was added thereto, and allowed to react for 2 hours. After reaction, 200 μl of dimethyl sulfoxide (DMSO, Duksan, Gyeonggi-do, Korea) was added thereto to completely dissolve formed formazan, and absorbance at 570 nm was measured using a microplate reader (Molecular Devices, CA, USA).

Another test concerns mice. Briefly: In vivo hematopoietic activity, blood test. The arrangement: species or system mouse. As to the method:
In vivo hematopoietic activities in a mouse were measured for the peptides prepared in Example 5, MLP, MLP-C, and MLP-H.
In detail, the prepared peptide or scrambled (Scr) peptide as a negative control group was administered by intraperitoneal injection to mice at a dose of 0 μg/kg, 1 μg/kg, or 100 μg/kg repeatedly, everyday over 14 days. Thereafter, a body weight test and a blood test were performed.

Setting [4] is: sampling at 0, 30, 60, 90 minutes.
[5] abbreviates: 100 μg/kg intraperitoneal daily over 14 days.

For `CC[C@H](C)[C@H](NC(=O)[C@H](C)NC(=O)[C@H](CCC(=O)O)NC(=O)[C@H](CCCCN)NC(=O)[C@H](CCC(N)=O)NC(=O)[C@H](C)NC(=O)CNC(=O)[C@H](CC(C)C)NC(=O)[C@H](C)NC(=O)[C@H](CCCNC(=N)N)NC(=O)[C@H](CC(C)C)NC(=O)[C@H](CC(C)C)NC(=O)[C@@H](NC(=O)[C@@H](NC(=O)[C@H](CC(C)C)NC(=O)[C@H](CO)NC(=O)[C@H](CCCNC(=N)N)NC(=O)[C@H](CC(C)C)NC(=O)CNC(=O)[C@@H](N)CO)[C@@H](C)O)[C@@H](C)O)C(=O)O` [ML6], in test [1] (SPR, Table 10), the koff turned out to be 0.045 s⁻¹.
In the case of AGLRSRAHLRRALA [ML5-1], in test [1] (SPR, Table 10), the kon is 442 M⁻¹ s⁻¹ and the koff was 0.0346 s⁻¹.
As to DEALDLEVDKAATGLRTLTTLIRAL [ML7-1], in test [1] (SPR, Table 10), the kon is 226 M⁻¹ s⁻¹ and the koff was 0.0144 s⁻¹.
DKAVSGLRSLTTLLRAL [ML8]: in test [1] (SPR, Table 10), the kon stood at 180 M⁻¹ s⁻¹ and the koff is 0.08 s⁻¹.
With DKAVSGLRSLTTLLRALGAQKEAI [ML4], in test [1] (SPR, Table 10), the kon amounted to 220 M⁻¹ s⁻¹ and the koff amounted to 0.0022 s⁻¹.
The matching figures for KGLRSLISLLRALGAQKEAI [ML6-1]: 190 M⁻¹ s⁻¹ and 0.03 s⁻¹.
Consider KKAVSGLKTLTHILRALGAQKEAI [ML4-1], for which the kon in test [1] (SPR, Table 10) is 410 M⁻¹ s⁻¹.
As to LDLEVDKAVSGLRSLTTLLRALG [ML1-C1], in test [1], the kon was determined as 1750 M⁻¹ s⁻¹ and the koff came to 0.262 s⁻¹. For the same molecule, in the test on PC12 cells [2], the “clustering of cell protective and proliferative effects relative to EPO” value is listed as “clustered as having similar effects as EPO”.
Regarding LHVDKAVSGLRSLTTLLRAL [ML2], the koff in test [1] (SPR, Table 10) turned out to be 0.0044 s⁻¹.
Turning to “LHVLKAVSGLLTLTMIRRA (MLP-H) [ML1-H2 with two amino acids removed from both ends, for in vivo use]”, the “character of erythropoietin receptor activation” value with erythropoietin receptor is reported as “weak yet lasts for a prolonged period of time”. Moreover, the “erythropoietin receptor activation after 30 minutes” value with erythropoietin receptor (setting [4]) is reported as “maintains activation even after 30 minutes”.
As for LQLHVDKAVSGLRSLTTLLRALG [ML1], in test [1] (SPR, Table 10), the kon was found to be 1310 M⁻¹ s⁻¹ and the koff was determined as 0.0085 s⁻¹. In test [1] (SPR, Table 11), the kon stood at 1310 M⁻¹ s⁻¹ and the koff amounted to 0.00847 s⁻¹. For the same molecule, in the test with PC12 cells [2], the “cell proliferative effects compared to EPO groups” value was “a large difference” and the “cell protective effects compared to EPO groups” value is given as “no large difference”.
Consider LQLHVLKAVAGLRTLAMIRRALA [ML1-H3], for which, in test [1] (SPR, Table 11), the kon is 4160 M⁻¹ s⁻¹ and the koff is 0.00477 s⁻¹. Further, in the test with PC12 cells [2], the “cell proliferative effects compared to EPO groups” value is listed as “a large difference” and the “cell protective effects compared to EPO groups” value was “no large difference”.
The matching figures for LQLHVLKAVSGLLTHTTLLKALG [ML1-H1]: 1010 M⁻¹ s⁻¹, 0.00794 s⁻¹, “a large difference” and “no large difference”.
With LQLHVLKAVSGLLTLTMIRRALG [ML1-H2], in test [1] (SPR, Table 11), the kon turned out to be 3430 M⁻¹ s⁻¹ and the koff is 0.00105 s⁻¹. In the test with PC12 cells [2], the “cell proliferative effects compared to EPO groups” value is reported as “a large difference” and the “cell protective effects compared to EPO groups” value is “no large difference”.
Take LQLHVLKRVSGLLSHTMLLKALG [ML1-1]: in test [1] (SPR, Table 10), the kon stood at 5550 M⁻¹ s⁻¹ and the koff was found to be 0.0059 s⁻¹.
As for LQRHVDKRVSGLRSLTTLLRALG [ML1-C2], in test [1] (SPR, Table 11), the kon stood at 1590 M⁻¹ s⁻¹ and the koff amounted to 0.0188 s⁻¹. Besides, the cell proliferation rate entry with PC12 cells [3] is recorded as “cell proliferative effects to a degree similar to that of the natural erythropoietin”. In the test with PC12 cells [2], the “clustering of cell protective and proliferative effects relative to EPO” value is “clustered as having similar effects as EPO”.
The corresponding values for LQRHVKKRVKGLKSLTTLLRALG [ML1-C3] are 1100 M⁻¹ s⁻¹, 0.0109 s⁻¹, “cell proliferative effects to a degree similar to that of the natural erythropoietin” and “clustered as having similar effects as EPO”.
In the case of NKAVAGLRSLTVN [ML8-1], the koff in test [1] (SPR, Table 10) was 0.15 s⁻¹.
On to “RHVKKRVKGLKSLTTLLRA (MLP-C) [ML1-C3 with two amino acids removed from both ends, for in vivo use]”, for which, in the test with mice (setting [5]), the hemoglobin content result is on record as “significant increases”, the mean corpuscular hemoglobin result is recorded as “significant increases” and the “mean corpuscular hemoglobin concentration” value is on record as “significant increases”. Besides, in the test with mice (100 μg/kg intraperitoneal daily over 14 days, FIG. 11B), the “red blood cell count” value was “significant increases”. The platelet concentration entry in the test on mice (intraperitoneal daily over 14 days, FIG. 11D) was “no large change”. Moreover, the hematocrit result in the test with mice (intraperitoneal, 1 or 100 μg/kg daily over 14 days, FIG. 11A) is reported as “significantly increased according to an administration dose”. Moreover, the “character of erythropoietin receptor activation” value with erythropoietin receptor is “brief but potent activation”. In addition, in the test with erythropoietin receptor (setting [4]), the “erythropoietin receptor activation after 30 minutes” value is recorded as “decline thereafter” and the “time of maximum erythropoietin receptor activity (ERK1/2 phosphorylation)” value stood at 30 min.
For RHVQKAESGLRSLTKLLREL [ML2-1], in test [1] (SPR, Table 10), the kon came to 310 M⁻¹ s⁻¹ and the koff is 0.0041 s⁻¹.
Turning to SGLRSLTTLLRALG [ML5], in test [1] (SPR, Table 10), the kon was found to be 304 M⁻¹ s⁻¹ and the koff turned out to be 0.0001 s⁻¹.
TKVNFYAWKR [ML3]: in test [1] (SPR, Table 10), the kon stood at 205 M⁻¹ s⁻¹ and the koff was 0.003 s⁻¹.
On to TRVNYQAWKR [ML3-1], for which, in test [1] (SPR, Table 10), the kon turned out to be 3080 M⁻¹ s⁻¹ and the koff was determined as 0.013 s⁻¹.
